Results as given in patent US12653191B2, “Active compound combinations” (Bayer Aktiengesellschaft, priority 2020, dated 2026).
“And” between values parts separate entries of the source, which are not always exact repeats. Equal entries are not always repeated. Where two headings read alike, the source gives them in different places.

Legend:
[1] = system: Parastagonospora nodorum; experiment: in vitro-Test with fungal microorganisms, Method B (tables H5-H8); format: cell-based
Procedure: (§1) Example: In Vitro-Test with Fungal Microorganisms
(§2) Wells of 96-well microtiter plates are filled with 30 μl of a preparation of test compound or compound combination in methanol+emulsifier alkylaryl-polyglycol-ether. Thereafter, the solvent is evaporated in a hood. At the next step, 200 μl of liquid growth medium is given, that has been amended with an appropriate concentration of spores or mycelium suspension of the test fungus.
(§3) With the aid of a photometer, the extinction in all wells is measured at the wavelength of 600 nm.
(§4) The microtiter plates are incubated for 3 to 7 days at 20° C. and 85% relative humidity. After the incubation inhibition of growth is determined photometrically. Efficacy is calculated in relation to the untreated control, 0% efficacy means fungal growth as high as in untreated control while 100% efficacy means no fungal growth is measured.
(§5) The data in tables A1 to A12, B1 to B14, C1 to C10, D1 to D8, E1 to E8, F1 to F11, G1 to G4, H1 to H4 and I1 to I5 were collected according to Method A. The data in tables A13 to A22, B15 to B18, C11 to C20, E9 to E16, F12 to F15, G5 to G15, H5 to H8, I6 to I11 and J1 to J11 were collected according to Method B.

[2] = system: Cordana musae; experiment: in vitro-Test with fungal microorganisms, Method B (tables E9-E16); format: cell-based; details: single active
Method in brief: (§6)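 Steps: solvent evaporation leaves the compound coating the wells; fungus-inoculated liquid growth medium goes on top; absorbance at 600 nm is measured; incubation runs 3 to 7 days at 20° C. with 85% relative humidity. Inhibition is then read photometrically and expressed as efficacy against untreated control.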

[3] = system: Alternaria alternata; experiment: in vitro-Test with fungal microorganisms, Method B (tables A13-A22); format: cell-based
Method in brief: as §6

[4] = system: Colletotrichum coccodes; experiment: in vitro-Test with fungal microorganisms, Method B (tables J1-J11); format: cell-based; details: for inhibition of growth at 0.4 ppm / inhibition of growth at 2 ppm / inhibition of growth at 0.08 ppm: Colletotrichum coccodes, read-out: Efficacy %
Method in brief: as §6

[5] = system: Ustilago segetum var. avenae; experiment: in vitro-Test with fungal microorganisms, Method B (tables I6-I11); format: cell-based; details: read-out: Efficacy %
Method in brief: as §6

[6] = system: Cercospora beticola; experiment: in vitro-Test with fungal microorganisms, Method B (tables C11-C20); format: cell-based
Method in brief: as §6

[7] = system: Fusarium culmorum; experiment: in vitro-Test with fungal microorganisms, Method B (tables G5-G15); format: cell-based; details: for inhibition of growth at 0.08 ppm / inhibition of growth at 0.4 ppm / inhibition of growth at 2 ppm: Fusarium culmorum, read-out: Efficacy
Method in brief: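 Efficacy, relative to untreated control (0% = growth as in control, 100% = no growth), from photometric growth measurement at 600 nm after 3 to 7 days at 20° C., 85% relative humidity. Compound applied in methanol+emulsifier, solvent evaporated, then spore/mycelium-amended liquid medium added.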

[8] = system: Botrytis cinerea; experiment: in vitro-Test with fungal microorganisms, Method B (tables B15-B18); format: cell-based
Method in brief: as §6

[9] = system: Diaporthe citri; experiment: in vitro-Test with fungal microorganisms, Method B (tables F12-F15); format: cell-based; details: Table F13
Procedure: as §1, §2, §3, §4, §5

[10] = system: Cercospora beticola; experiment: in vitro-Test with fungal microorganisms, Method A (tables C1-C10); format: cell-based
Method in brief: (§7)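 Readout: extinction at 620 nm, measured at start and again 3-5 days later, giving efficacy versus untreated control (0% = control growth, 100% = no growth). Compounds were evaporated from methanol/emulsifier before adding potato dextrose medium with fungal spores or mycelium; incubation 20° C, 85% RH.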

[11] = system: Botrytis cinerea; experiment: in vitro-Test with fungal microorganisms, Method A (tables B1-B14); format: cell-based; details: for Efficacy %: alone
Method in brief: as §7

[12] = system: Diaporthe citri; experiment: in vitro-Test with fungal microorganisms, Method A (tables F1-F11); format: cell-based
Method in brief: as §7

[13] = system: Alternaria alternate; experiment: in vitro-Test with fungal microorganisms, Method A (tables A1-A12); format: cell-based, Alternaria alternata; details: applied alone
Method in brief: as §7

[14] = system: Colletotrichum lindemuthianum; experiment: in vitro-Test with fungal microorganisms, Method A (tables D1-D8); format: cell-based
Method in brief: as §7

[15] = system: Cordana musae; experiment: in vitro-Test with fungal microorganisms, Method A (tables E1-E8); format: cell-based; details: mixing partner alone
Method in brief: as §7

[16] = Neocordana musae, 0.08 ppm, read-out: Efficacy
[17] = single active compound at 0.08 ppm
[18] = single active compound at 0.4 ppm
[19] = single active compound at 2 ppm
[20] = Cercospora beticola, single compound, 0.08 ppm, read-out: Efficacy %
[21] = Cercospora beticola, single compound, read-out: Efficacy %
[22] = single active compound, 0.08 ppm
[23] = single active compound, 0.4 ppm

SMILES: CCN(C)C=Nc1cc(C)c(Oc2cccc(SC(F)(F)C(F)F)c2)cc1C [(1.067), N′-(2,5-dimethyl-4-{3-[(1,1,2,2-tetrafluoro-ethyl)sulfanyl]-phenoxy}phenyl)-N-ethyl-N-methyl-imidoformamide]
- inhibition of growth at 0.08 ppm ([1]; Parastagonospora nodorum, 0.08 ppm, read-out: Efficacy): 94%
- inhibition of growth at 0.4 ppm ([1]; Parastagonospora nodorum, 0.4 ppm, read-out: Efficacy): 100%
- inhibition of growth at 0.08 ppm [2, 16]: 0%
- inhibition of growth at 0.4 ppm ([2]; Neocordana musae, 0.4 ppm, read-out: Efficacy): 14%
- inhibition of growth at 2 ppm ([2]; Neocordana musae, 2 ppm, read-out: Efficacy): 100%
- inhibition of growth at 2 ppm ([3]; Alternaria alternata, 2 ppm, read-out: Efficacy): 74%
- inhibition of growth at 0.4 ppm ([4]; 0.4 ppm): 0%
- inhibition of growth at 2 ppm ([4]; 2 ppm): 99%
- inhibition of growth at 0.08 ppm [4, 17]: 1%
- inhibition of growth at 0.4 ppm [4, 18]: 12%
- inhibition of growth at 2 ppm [4, 19]: 97%
- inhibition of growth at 0.08 ppm ([5]; alone): 100%
- inhibition of growth at 0.08 ppm [6, 20]: 0%
- inhibition of growth at 0.4 ppm [6, 21]: 68%
- inhibition of growth at 2 ppm ([6]; Cercospora beticola, single compound, 2 ppm, read-out: Efficacy %): 100%
- inhibition of growth at 0.08 ppm ([7]; 0.08 ppm, alone): 30%
- inhibition of growth at 0.4 ppm ([7]; 0.4 ppm, alone): 26%
- inhibition of growth at 2 ppm ([7]; 2 ppm, alone): 99%
- inhibition of growth at 0.08 ppm [7, 22]: 22%
- inhibition of growth at 2 ppm ([7]; single active compound, 2 ppm): 97%

SMILES: CO/N=C(/C1=NOCCO1)c1ccccc1Oc1ncnc(Oc2ccccc2Cl)c1F [(3.012) fluoxastrobin, fluoxastrobin]
- inhibition of growth at 0.08 ppm [2, 16]: 3%
- inhibition of growth at 4 ppm ([3]; Alternaria alternata, 4 ppm, read-out: Efficacy): 68%
- inhibition of growth at 20 ppm ([3]; Alternaria alternata, 20 ppm, read-out: Efficacy): 92%
- inhibition of growth at 0.4 ppm ([3]; Alternaria alternata, single compound, 0.4 ppm, read-out: Efficacy): 70%
- inhibition of growth at 0.08 ppm ([4]; 0.08 ppm): 41%
- inhibition of growth at 0.08 ppm [4, 17]: 0%
- inhibition of growth at 2 ppm [4, 19]: 0%
- inhibition of growth at 0.08 ppm [5]: 18%
- inhibition of growth at 0.4 ppm ([5]; 0.4 ppm): 51%
- inhibition of growth at 0.08 ppm ([5]; alone): 16%
- inhibition of growth at 0.4 ppm ([6]; Cercospora beticola, read-out: Efficacy %): 100%
- inhibition of growth at 0.08 ppm [6, 20]: 96%
- inhibition of growth at 0.4 ppm [6, 21]: 100%
- inhibition of growth at 0.4 ppm ([8]; Botrytis cinerea, 0.4 ppm alone, read-out: Efficacy %): 20%
- inhibition of growth at 2 ppm ([8]; Botrytis cinerea, 2 ppm alone, read-out: Efficacy %): 31%
- Efficacy ([9]; 0.4 ppm alone): 83%
- Efficacy ([9]; 2 ppm alone): 96%
- inhibition of growth at 0.08 ppm ([7]; 0.08 ppm, alone): 19%
- inhibition of growth at 0.08 ppm [7, 22]: 27%
- inhibition of growth at 0.4 ppm [7, 23]: 47%
- inhibition of growth at 2 ppm ([7]; single active compound, 2 ppm): 37%

SMILES: CCCOc1nc2ccc(I)cc2c(=O)n1CCC [(13.004) proquinazid, proquinazid]
- Efficacy % ([10]; 0.08 ppm alone): 9%
- Efficacy % ([10]; 0.4 ppm alone): 0%
- Efficacy % ([10]; 2.0 ppm alone): 0%
- Efficacy % ([10]; 10.0 ppm, alone): 19%
- Efficacy ([1]; 0.08 ppm): 32%
- Efficacy ([11]; 0.08 ppm): 13%
- Efficacy ([11]; 0.4 ppm): 0%
- Efficacy ([11]; 2.0 ppm): 0%
- Efficacy ([11]; 10.0 ppm): 0%
- Efficacy % ([11]; 0.4 ppm): 0%
- Efficacy % ([11]; 10.0 ppm): 0%
- Efficacy ([2]; 0.08 ppm): 0% and 5%
- Efficacy ([2]; 0.4 ppm): 0% and 3%
- Efficacy ([2]; 10 ppm): 15% and 20%
- Efficacy ([12]; Table F10, 0.08 ppm alone): 0%
- Efficacy ([12]; Table F10, 0.4 ppm alone): 0%
- Efficacy ([12]; Table F10, 2.0 ppm alone): 12%
- Efficacy ([12]; Table F10, 10.0 ppm alone): 24%
- Efficacy ([12]; applied alone, 0.08 ppm): 16%
- Efficacy ([12]; applied alone, 0.4 ppm): 0%
- Efficacy ([12]; applied alone, 10.0 ppm): 21%
- Efficacy ([3]; 0.08 ppm): 0%
- Efficacy ([3]; 0.4 ppm): 3%
- Efficacy ([3]; 2 ppm): 4%
- Efficacy ([3]; single compound, 0.08 ppm): 11%
- Efficacy ([3]; single compound, 0.4 ppm): 10%
- Efficacy ([3]; single compound, 2 ppm): 0%
- Efficacy ([3]; single compound, 10 ppm): 5%
- Efficacy % [4, 18]: 0%
- Efficacy % [4, 19]: 0%
- Efficacy % ([4]; single active compound at 10 ppm): 0%
- Efficacy % ([13]; 0.08 ppm): 19%
- Efficacy % ([13]; 0.4 ppm): 6%
- Efficacy % ([13]; 2.0 ppm): 0%
- Efficacy % ([13]; 10.0 ppm): 9%
- Efficacy % ([6]; 2 ppm): 0%
- Efficacy % ([6]; 10 ppm): 0%
- Efficacy % ([6]; single compound, 0.08 ppm): 0%
- Efficacy % ([8]; 0.4 ppm alone): 0%
- Efficacy % ([8]; 2 ppm alone): 3% and 5%
- Efficacy % ([14]; single active at 0.08 ppm): 0%
- Efficacy % ([14]; single active at 0.4 ppm): 0%
- Efficacy % ([14]; single active at 2.0 ppm): 2%
- Efficacy % ([14]; single active at 10.0 ppm): 25%
- Efficacy % ([15]; 0.08 ppm): 0%
- Efficacy % ([15]; 0.4 ppm): 0%
- Efficacy % ([15]; 2.0 ppm): 1%
- Efficacy % ([15]; 10.0 ppm): 26%
- Efficacy ([7]; 0.08 ppm alone): 18%
- Efficacy ([7]; 0.4 ppm alone): 0%
- Efficacy [7, 22]: 2%
- Efficacy [7, 23]: 11%
- Efficacy ([7]; single active compound, 2 ppm): 8% and 7%
